These results are taken from patent publication US9139613B2, “Macrocyclic compounds and methods for their production” (NEUROVIVE PHARMACEUTICAL AB, priority 2011, dated 2015).

pEC50, pIC50: −log10 of the molar value. Where two headings read alike, the source gives them in different places. Some results are limits rather than exact numbers.

Data set [1] in a line: Anti-metabolic effect (MTS) in Huh5.2 replicon cells. As to conditions: human. The procedure:
(§1) Dilution series are prepared; each dilution series is performed in at least duplicate.
(§2) The selectivity index (SI), indicative of the therapeutic window of the compound, is calculated as CC50/EC50.

Data set [2] has as its system HCV genotype 1b replicon in Huh5.2 cells. The experiment in a line: HCV genotype 1b replicon assay using Huh5.2 cells (antiviral effect, luciferase). The data set is classed as cell-based, Hepatitis C virus. Conditions: for pEC50: Hepatitis C virus, Huh-5-2, genotype 1b replicon, Huh5.2 cells, 72 hours; for Selectivity index (CC50/EC50): Huh5.2 replicon assay. The procedure:
as §1
For the evaluation of antiviral effects, assay medium is aspirated and the cell monolayers are washed with PBS. The wash buffer is aspirated, 25 μL of Glo Lysis Buffer (Cat. N°. E2661, Promega) is added after which lysis is allowed to proceed for 5 min at room temperature. Subsequently, 50 μL of Luciferase Assay System (Cat. N^o. E1501, Promega) is added and the luciferase luminescence signal is quantified immediately (1000 ms integration time/well, Safire^2, Tecan). Relative luminescence units are converted to percentage of untreated controls.
as §2
Background: Replicon systems follow genome replication, usually without infectious particles.

Data set [3] has as its target T1, CypA Peptidyl Prolyl cis-trans Isomerase (PPlase) (Homo sapiens, UniProt P62937).
T1 construct: GST (cleaved yes); made in house
The experiment in a line: Inhibition of CypA PPIase activity. Format: biochemical.
Description: An alternative methodology for analysing interaction with cyclophilins is described as follows: The PPlase activity of recombinant CypA or D, produced by thrombin cleavage of GST-CypA or D, was determined by following the rate of hydrolysis of N-succinyl-Ala-Ala-Pro-Phe-p-nitroanilide by chymotrypsin. Chymotrypsin only hydrolyzes the trans form of the peptide, and hydrolysis of the cis form, the concentration of which is maximized by using a stock dissolved in trifluoroethanol containing 470 mM LiCl, is limited by the rate of cis-trans isomerization. CypA or D was equilibrated for 1 h at 5° C. with selected test article using a drug concentration range from 0.1 to 20 nM. The reaction was started by addition of the peptide, and the change in absorbance was monitored spectrophotometrically at 10 data points per second. The blank rates of hydrolysis (in the absence of CypA or D) were subtracted from the rates in the presence of CypA or D. The initial rates of the enzymatic reaction were analyzed by first-order regression analysis of the time course of the change in absorbance.

Data set [4] in a line: Mouse in vivo oral and iv PK. As to conditions: male, whole blood, CD1 mice. The procedure: For sanglifehrin analogues, whole blood is analysed. Compounds are formulated in 5% ethanol/5% cremophor EL/90% saline for both p.o. and i.v. administration. Groups of 3 male CD1 mice are dosed with either 1 mg/kg i.v. or 5 or 10 mg/kg p.o. Blood samples (40 μL) are taken via saphenous vein, pre-dose and at 0.25, 0.5, 2, 8, and 24 hours, and diluted with an equal amount of dH20 and put on dry ice immediately. Samples are stored at −70° C. until analysis. The concentration of the compound of the invention or parent compound in the sample is determined via LCMS as follows: 20 μL of blood:H2O (1:1, v/v)/PK sample is added with 20 μL Internal standard (hydroxyl macrocycle, 6) at 100 ng/mL, 20 μL working solution/MeOH and 150 μL of ACN, vortexed for 1 minute at 1500 rpm, and centrifuged at 12000 rpm for 5 min. The supernatant is then injected into LC-MS/MS. The time-course of blood concentrations is plotted and used to derive area under the whole blood concentration-time curve (AUC—which is directly proportional to the total amount of unchanged drug that reaches the systemic circulation). These values are used to generate PK parameters where possible.
To assess the pharmacokinetics of the compounds in an in vivo setting, compounds were dosed po at 10 or 5 mg/kg and iv at 1 mg/kg to groups of CD1 mice. Pharmacokinetic analysis was carried out as described in the general methods. […]

The conditions of data set [5]: immunosuppressive activity; cited from earlier work.
For data set [6], the system named is HIV. The experiment in a line: HIV antiviral assay using HeLa cells. Format: cell-based, Human Immunodeficiency Virus.

T1 sequence (P62937 whole entry): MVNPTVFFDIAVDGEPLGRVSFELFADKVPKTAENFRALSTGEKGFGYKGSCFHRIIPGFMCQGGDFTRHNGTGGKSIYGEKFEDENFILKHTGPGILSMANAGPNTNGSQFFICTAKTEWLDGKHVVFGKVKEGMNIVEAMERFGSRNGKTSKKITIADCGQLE

As a reminder, the CC50 is the concentration at which the toxic effect on the cells reaches its halfway point. What is called pEC50 is the EC50 on a negative log10 scale, so that one unit is a factor of ten. Read a low pEC50 as a high EC50. As usually defined, the pIC50 is the IC50 on a negative log10 scale, so that one unit is a factor of ten. For the compound `CON(C)C(=O)/C=C/C=C(\C)[C@@H]1C/C=C/C=C/[C@H](O)[C@H](C)[C@@H](O)[C@@H](CCC(C)=O)C(=O)N[C@@H](C(C)C)C(=O)N[C@@H](Cc2cc(O)cc(F)c2)C(=O)N2CCCC(N2)C(=O)O1` (stereo partly shown) [Compound 23], the CC50 at 72 h in data set [1] is > 100 µM. In data set [2], the pEC50 is 7.17 and the “Selectivity index (CC50/EC50)” value was >1493. Besides, in data set [3] (read-out: CypA PPIase IC50), the pIC50 is 9.48. Moreover, in data set [4] (iv at 1 mg/kg), the clearance is 0.039 L/h/kg. Moreover, the AUC(0-t) in data set [4] (po, dose level 5 mg/kg, read-out: po AUClast) stood at 2.76 µg·h/mL.
Take `CC[C@H]1C[C@H](C)[C@@]2(NC1=O)O[C@@H](C[C@H](O)[C@@H](C)CC/C=C/C=C(\C)[C@@H]1C/C=C/C=C/[C@H](O)[C@H](C)[C@@H](O)[C@@H](CCC(C)=O)C(=O)N[C@@H](C(C)C)C(=O)N[C@@H](Cc3cccc(O)c3)C(=O)N3CCC[C@H](N3)C(=O)O1)[C@H](C)[C@H](O)[C@@H]2C` [Sanglifehrin A, 5, Sanglifehrin A]: in data set [5], the “less potent than Cyclosporine A” value was 10 fold.
As for `C[C@H](Cn1cnc2c(N)ncnc21)OCP(=O)(O)O` [Tenofovir], the pEC50 in data set [6] was 5.98.
`CC(=O)CC[C@H]1C(=O)N[C@@H](C(C)C)C(=O)N[C@@H](Cc2ccc(C)c(O)c2)C(=O)N2CCCC(N2)C(=O)O[C@H](/C(C)=C/C=C/C(=O)N2CCCCO2)C/C=C/C=C/[C@H](O)[C@H](C)[C@H]1O` (stereo partly shown) [Compound 27]: in data set [1] (Huh5.2 cells containing the HCV genotype 1b replicon), the CC50 at 72 h was > 100 µM. Besides, in data set [2], the negative logarithm of the EC50 (pEC50) was 6.92 and the “Selectivity index (CC50/EC50)” value is listed as >826. Further, the negative logarithm of the IC50 (pIC50) in data set [3] (read-out: CypA PPIase IC50) was 9.46.
Regarding `CC(=O)CC[C@H]1C(=O)N[C@@H](C(C)C)C(=O)N[C@@H](Cc2cc(O)cc(F)c2)C(=O)N2CCCC(N2)C(=O)O[C@H](/C(C)=C/C=C/C(=O)Nc2ccccn2)C/C=C/C=C/[C@H](O)[C@H](C)[C@H]1O` (stereo partly shown) [Compound 25], the CC50 at 72 h in data set [1] is > 100 µM. For the same compound, in data set [2], the pEC50 is 7.18 and the “Selectivity index (CC50/EC50)” value is >1515. Further, the negative-log IC50 (pIC50) in data set [3] is 8.94.
